In ChEMBL document CHEMBL5335868, “Exploring Scaffold Hopping for Novel 2-(Quinolin-4-yloxy)acetamides with Enhanced Antimycobacterial Activity” (ACS Med Chem Lett, 2024):
In brackets after ≈: the same amount, converted by molar mass.

Experiments:
Type in all cases: functional
[1] = tested on: Mycobacterium tuberculosis; assay: Antibacterial activity against multi-drug resistant Mycobacterium tuberculosis clinical isolate PT20 assessed as bacterial growth inhibition measured after 7 days by resazurin based assay; conditions: 168 h, time 7 day
[2] = tested on: Mycobacterium tuberculosis; assay: Antibacterial activity against multi-drug resistant Mycobacterium tuberculosis clinical isolate PT12 assessed as bacterial growth inhibition measured after 7 days by resazurin based assay; conditions: 168 h, time 7 day
[3] = tested on: Mycobacterium tuberculosis; assay: Antibacterial activity against qcrB-resistant Mycobacterium tuberculosis harbouring T313A mutant assessed as bacterial growth inhibition measured after 7 days by resazurin based assay; conditions: time 7 day
[4] = tested on: Mycobacterium tuberculosis; assay: Antibacterial activity against multi-drug resistant Mycobacterium tuberculosis clinical isolate PT2 assessed as bacterial growth inhibition measured after 7 days by resazurin based assay; conditions: 168 h, time 7 day

Compound | MIC [1] [µM] | MIC [2] [µM] | MIC [3] [µM] | MIC [4] [µM]
COc1ccc2nc(C)cc(OCC(=O)Nc3ccc(N4CCC(c5ccc(OC(F)(F)F)cc5)CC4)cc3)c2c1 | < 0.02 | < 0.02 | >8.8 | < 0.02
Cc1cc(OCC(=O)Nc2ccc(N3CCC(c4ccccc4)CC3)cc2)c2cc(Br)ccc2n1 | < 0.02 | < 0.02 | >9.4 | < 0.02
COc1ccc2nc(C)cc(OCC(=O)Nc3ccc(N4CCC(c5ccccc5)CC4)cc3)c2c1 | < 0.02 | < 0.02 | >10.4 | < 0.02
Cc1cc(OCC(=O)Nc2ccc(N3CCC(c4ccccc4)CC3)cc2)c2cc(Cl)ccc2n1 | < 0.02 | < 0.02 | >10.3 | < 0.02
NNC(=O)c1ccncc1 [ISONIAZID] |  | 146 (≈ 20 µg/mL) | 2.3 (≈ 0.315 µg/mL) | 
CO[C@H]1/C=C/O[C@@]2(C)Oc3c(C)c(O)c4c(O)c(c(/C=N/N5CCN(C)CC5)c(O)c4c3C2=O)NC(=O)/C(C)=C\C=C\[C@H](C)[C@H](O)[C@@H](C)[C@@H](O)[C@@H](C)[C@H](OC(C)=O)[C@@H]1C [RIFAMPIN] | > 48.6 | > 48.6 |  | > 48.6
